This is an account of results in US11286258B2, “Nature-inspired anticancer and antibacterial motifs and pharmaceutical composition thereof” (University of Sharjah, priority 2020, dated 2022).

Assay [1] relates to A549. Briefly: MTT cell viability, A549. The class given is cell-based. Conditions: Homo sapiens, lung cancer, 48 h of drug treatment, average of three experiments. From the text:
Cell culture: In this study five different cancer cell lines were used, human lung carcinoma (A549), human breast adenoma (MCF-7), Cervical carcinoma (Hela), hepatocellular carcinoma (Hep3B), and colorectal adenocarcinoma (HCT-116). These cells were obtained from the European Collection of Cell Cultures (ECACC, UK). Hep3B cells were maintained in Dulbecco's Modified Eagle Medium (DMEM: Sigma-Aldrich), and the four other cell lines were maintained in Roswell Park Memorial Institute medium (RPMI, Sigma-Aldrich, St. Louis, Mo., USA), which was supplemented with 10% fetal bovine serum (FBS, Sigma-Aldrich) and 1% penicillin/streptomycin (Sigma-Aldrich). Cells were incubated all the time at 37° C. in a humidified atmosphere of 5% CO2. Cell viability studies: Cell viability was assessed using the MTT assay as described before. In brief, all cancer cell lines were seeded at a density of 4×10^4/well in 96 well flat-bottom plates. After 24 h from seeding, cells were treated with the synthesized compounds and left for an incubation period of 48 h. Upon reaching the indicated time point, the media was removed and replaced with 200 μL fresh media containing 0.5 mg/mL of MTT tetrazolium dye (Sigma-Aldrich). Cells were then incubated with MTT solution for 2 h at 37° C. The resultant formazan crystals were dissolved in 200 μl/well of DMSO and absorbance was measured at 570 nm using a microplate reader (Thermo Scientific).

The subject of assay [2] is MDA-MB-468. Briefly: MTT cell viability, MDA-MB-468. It is filed as cell-based. Conditions: Homo sapiens, breast cancer, 48 h of drug treatment, average of three experiments. As to the method:
Cell viability studies: Cell viability was assessed using the MTT assay as described before. In brief, all cancer cell lines were seeded at a density of 4×10^4/well in 96 well flat-bottom plates. After 24 h from seeding, cells were treated with the synthesized compounds and left for an incubation period of 48 h. Upon reaching the indicated time point, the media was removed and replaced with 200 μL fresh media containing 0.5 mg/mL of MTT tetrazolium dye (Sigma-Aldrich). Cells were then incubated with MTT solution for 2 h at 37° C. The resultant formazan crystals were dissolved in 200 μl/well of DMSO and absorbance was measured at 570 nm using a microplate reader (Thermo Scientific).

The subject of assay [3] is Hela cells. Briefly: Western blot, autophagy- and iron metabolism-related proteins, Hela. It is filed as cell-based, human. As to the method: Western Blotting (autophagy- and iron metabolism-related proteins): Cells were grown in DMEM supplemented with 10% FBS and 1×PEST (Penicillin and streptomycin antibiotics) at 37° C. in incubator having humidified atmosphere with 5% CO2. The media were removed and cells were washed twice with 1× cold PBS. Cells lysis was performed with RIPA lysis buffer containing (150 mM sodium chloride, 1.0% NP-40, 0.1% SDS, 50 mM Tris pH 8.0, 0.5% sodium deoxycholate supplemented with protease inhibitors cocktail). Cells were kept on icebox during the lysis process. Cold lysis buffer was added to each well directly and then cells were scraped and collected in 1.5 ml Eppendorf tube. Cell lysis was kept on icebox for 20 minutes and then centrifuged at 4° C. for 10 minutes. The supernatant was collected and the pellet was discarded. After, protein quantification, samples were boiled in 5× loading buffer at 95° C. for 5 minutes. After completion of the gel running and transfer process, the membrane was stained with ponceau solution. After that, the membrane was washed with 1×TBST and then blocked in 5% non-fat dry milk for 1 hr at room temperature. The membrane was washed 3 times with 1×TBST and then incubated with indicated primary antibodies at 4° C. overnight. Primary antibodies were removed; the membrane was washed 3 times with 1×TBST and then incubated with secondary antibodies for 2 h at room temperature. Secondary antibodies were diluted in 5% non-fat dry milk in 1× TB ST. After removal of the secondary antibody, the membrane was washed 3 times with 1×TBST. The membrane was incubated in ECL solution and the signal was developed using Gel Doc system from Biorad.
A general note: Immunoblotting shows a protein as a band on a membrane.

The subject of assay [4] is MRSA-ATCC700699 (VISA). Briefly: MIC broth microdilution, MRSA ATCC700699 (VISA). It is filed as cell-based, Staphylococcus aureus. Conditions: for MIC: Staphylococcus aureus, strain intermediately resistant to vancomycin, overnight incubation, read-out: MIC MRSA-ATCC700699 (VISA). The method, boiled down:
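Exponentially growing cells were diluted in Mueller-Hinton broth to roughly 5×10^5 CFU/mL. Eight two-fold concentrations of compound (100 down to 0.78 μg/mL) were added, and plates sat overnight at 37° C. Wells were then scored for turbidity.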
In general terms: In broth dilution the organism is exposed to a series of concentrations in liquid medium.

Assay [5] relates to Hep3B cells. The assay is described as follows: Western blot, apoptotic biomarkers, tumor suppressor genes and oncogenes, Hep3B. The class given is cell-based, human. Conditions: for PARP cleavage / Cleavage of caspase7 and caspase-3: 1 to 4 μM, 48 h; for Cleavage of caspase7 and caspase-3: clear at 4 μM; for c-Myc oncogene level: dose-dependent manner. As to the method:
Western blotting (apoptotic biomarkers, tumor suppressor genes and oncogenes): Hep3B and HCT-116 cells were treated with 1f and 1h compounds with increasing concentrations from 1 to 4 μM for 48 h. After reaching the time point, proteins were extracted from the collected cells after their lyses, and protein quantification was performed using a Detergent compatible (DC) protein assay kit (Bio-Rad) following the manufacturer's instructions. 12% SDS-polyacrylamide gels were used to separate the proteins, following the proteins were transferred onto nitrocellulose membrane using a semi-dry transfer cell. After transfer, membranes were incubated with primary antibodies and the incubation was left overnight at 4° c. The following antibodies were implicated: anti-β actin (Cell Signalling #4970), anti-caspase3 (Cell Signalling #14220), anti-caspase-7 (Cell Signalling33 #9492), anti-PARP (Cell Signalling #9532), anti-P53 (Cell Signalling #2527), anti-C-myc (Cell Signalling #18583), and anti-BAX (#5023). Finally, membranes were incubated with secondary conjugated with horseradish peroxidase. The indicated proteins were detected by chemiluminescence.

Values after ≈ are worked out from the molar mass of the structure shown.

As a reminder, the IC50 is the midpoint of a concentration-inhibition curve. Higher therefore signals weaker potency in that assay. By MIC is commonly meant the least concentration at which growth counts as inhibited.

In assay [1], `FC(F)(F)c1ccc(N/N=C2\C=C[C@@]3(CC2)CC[C@@H]2NCCc4c2n3c2ccccc42)cc1` (racemic) [Compound 1e] returned an IC50 of 4.011 ± 0.02 µM. The IC50 in assay [2] is 2.5 ± 0.13 µM. Also, in assay [3], the “Expression and metabolism of autophagy marker LC3B1/II” value is given as “upregulate”; the “Expression of Ferritin heavy chain (FTH1)” value is “inhibits”; the “Expression of cell cycle marker CDK6” value is given as “inhibits”; the “Expression of cellular iron exporter protein Ferroportin (FPN)” value is “inhibits”. Moreover, the MIC in assay [4] was determined as 3.12 µg/mL (≈ 6.94 µM).
Turning to `FC(F)(F)Oc1ccc(N/N=C2\C=C[C@@]3(CC2)CC[C@@H]2NCCc4c2n3c2ccccc42)cc1` [Compound 1f], in assay [5], the PARP cleavage result is given as “PARP cleavage”; the “Cleavage of caspase7 and caspase-3” value is given as “cleavage”; the c-Myc oncogene level result is on record as “downregulate”. Also, in assay [1], the IC50 came out at 5.99 ± 0.03 µM. For the same molecule, the MIC in assay [4] came out at 6.25 µg/mL (≈ 13.4 µM).
Regarding `Cc1ccc2c(c1)c1c3n2[C@@]2(C=C/C(=N\Nc4ccc(C(F)(F)F)cc4)CC2)CC[C@@H]3NCC1` [Compound 1h], in assay [5], the PARP cleavage result is given as “PARP cleavage”; the “Cleavage of caspase7 and caspase-3” value is on record as “cleavage”; the c-Myc oncogene level result was “downregulate”. Moreover, in assay [1], the IC50 is 4.897 ± 0.03 µM. For the same molecule, the MIC in assay [4] worked out at 1.56 µg/mL (≈ 3.36 µM). Further, the “MIC times less than the MIC of vancomycin” value in assay [4] (VISA strain ATCC 700699, vancomycin 8 μg/mL) is reported as approximately 5 times.
With `COc1ccc2c(c1)c1c3n2[C@@]2(C=C/C(=N\Nc4ccc(C(F)(F)F)cc4)CC2)CC[C@@H]3NCC1` [Compound 1k], the figures for the IC50 in assay [1] and in assay [2] were 5.491 ± 0.05 µM and 2.49 ± 0.16 µM, respectively. The “Expression and metabolism of autophagy marker LC3B1/II” value in assay [3] was “upregulate”. Besides, the “Expression of DNA damage marker pH2AX” value in assay [3] was “induce”. In assay [4], the MIC was found to be 3.12 µg/mL (≈ 6.5 µM).
